Data on four compounds can be found in ChEMBL document CHEMBL1201862, “PubChem BioAssay data set” (2004).

Assay [1] deals with T1, Endoribonuclease toxin MazF (Escherichia coli K-12, UniProt P0AE70).
T1 sequence (P0AE70 whole entry): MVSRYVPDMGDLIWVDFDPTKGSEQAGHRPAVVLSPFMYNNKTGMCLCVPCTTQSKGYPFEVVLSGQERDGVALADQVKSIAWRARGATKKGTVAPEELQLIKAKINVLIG
In words: MazF toxin RNase activators, dose response, biochemical, fluorescence, single-stranded RNA substrate, uHTS hits (AID 588481). Format: functional.

Assay [2] concerns the target T1, Endoribonuclease toxin MazF. In words: fluorescent RNA oligo signal without MazF, dose response, counter-screen for MazEF activator project, biochemical, fluorescence, single-stranded RNase substrate (AID 588502). Format: functional.
Assay [3] in a line: inhibitors of firefly luciferase expression or activity, dose response, H4 neuroglioma cells, luminescence (AID 1990). Type of assay: functional, cell-based.
For assay [4], the system named is HEK293. Nature of the assay: NOD1 signaling inhibitors, primary screen, cell-based, luminescence, uHTS (AID 1578). Format: functional. The conditions noted are these: Homo sapiens.
The test system of assay [5] is Streptococcus sp. 'group A'. In words: growth inhibition of control SK(-) GAS strain, dose response, counter-screen for streptokinase expression inhibitor project, luminescence, kanamycin, BacTiterGlo, confirmation (AID 1900). Type of assay: functional, organism-based. Background: The purpose of a counterscreen is to sort out artefacts and off-target activity.
The test system of assay [6] is HEK293. Nature of the assay: cells. Type of assay: functional, cell-based. Conditions: Homo sapiens.
The next assay concerns the target T2, Streptokinase A (Streptococcus pyogenes serotype M1, UniProt P10520).
T2 sequence (P10520 whole entry): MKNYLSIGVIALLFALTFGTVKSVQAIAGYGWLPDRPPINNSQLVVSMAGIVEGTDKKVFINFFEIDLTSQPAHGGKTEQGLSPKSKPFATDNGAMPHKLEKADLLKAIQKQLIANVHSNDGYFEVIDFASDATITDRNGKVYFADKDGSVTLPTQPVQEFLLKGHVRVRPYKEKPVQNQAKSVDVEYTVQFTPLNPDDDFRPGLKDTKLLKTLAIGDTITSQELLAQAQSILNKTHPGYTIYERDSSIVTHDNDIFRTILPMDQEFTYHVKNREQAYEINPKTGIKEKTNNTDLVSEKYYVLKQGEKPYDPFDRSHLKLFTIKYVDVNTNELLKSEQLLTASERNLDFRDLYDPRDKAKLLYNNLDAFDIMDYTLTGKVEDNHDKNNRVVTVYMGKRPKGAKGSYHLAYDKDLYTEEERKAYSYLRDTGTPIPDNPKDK
Nature of the assay: S. pyogenes streptokinase expression inhibitors, potency, dose response, plasminogen activation absorbance, OD405 (AID 1914).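 Further: secreted streptokinase activity via plasminogen activation per viability signal from cell pellet.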 Type of assay: functional, Streptococcus pyogenes M1 GAS.

In assay [7] the test system is HEK293. In words: cells. Conditions: Homo sapiens. Type of assay: functional, cell-based. The source holds these as a separate data set.
Assay [8] in a line: microbe, parasite or virus in culture. Type of assay: functional. Conditions: Mycobacterium tuberculosis.
For the next assay, the system named is Streptococcus. Nature of the assay: Group A Streptococcus viability loss, dose response, counter-screen for streptokinase expression inhibitor project, luminescence, BacTiterGlo (AID 1915).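 Further: potency for reduction of bacterial viability or growth.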 Format: functional, organism-based.
Another assay deals with T3, Bcl-2-related protein A1 (Mus musculus, UniProt Q07440).
T3 sequence (Q07440 whole entry): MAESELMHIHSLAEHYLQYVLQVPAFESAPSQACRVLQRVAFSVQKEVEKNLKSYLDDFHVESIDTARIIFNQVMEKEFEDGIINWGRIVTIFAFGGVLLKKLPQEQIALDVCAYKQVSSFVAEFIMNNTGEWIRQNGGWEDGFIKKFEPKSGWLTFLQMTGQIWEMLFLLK
Type of assay: functional.

The target in assay [9] is T4, Ubiquitin-conjugating enzyme E2 N (Homo sapiens, UniProt P61088).
T4 sequence (P61088 whole entry): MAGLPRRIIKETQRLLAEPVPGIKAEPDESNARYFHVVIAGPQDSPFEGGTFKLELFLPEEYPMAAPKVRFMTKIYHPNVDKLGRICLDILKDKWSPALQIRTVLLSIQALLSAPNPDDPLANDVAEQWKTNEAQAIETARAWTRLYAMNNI
Format: functional.

In assay [10] the target is T4, Ubiquitin-conjugating enzyme E2 N. Format: functional. This is another data set of the same source.
The subject of assay [11] is HEK293. In words: inhibitors of LMP1-driven NF-kB reporter, dose response, cell-based, HEK293, luciferase, cherry-pick (AID 588343). Type of assay: functional, Homo sapiens. Conditions: Homo sapiens, HEK293.
For assay [12], the target named is Dual specificity protein kinase CLK1 (Homo sapiens, UniProt P49759). In words: CLK1 kinase inhibitors, off-target check, dose response, selectivity assay for Dyrk1A inhibitor project, biochemical, cherry-picked samples (AID 588811).
Assay [13] deals with Dual specificity tyrosine-phosphorylation-regulated kinase 1A (Rattus norvegicus, UniProt Q63470). Format: biochemical, Homo sapiens.
Assay [14] can be described thus: Shn3 3'UTR reporter inhibitors, dose response, cell-based, Clone20 osteoblasts, firefly luciferase, cherry-picked (AID 624132).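 Further: firefly luciferase luminescence from reporter carrying the Shn3 3'UTR in osteoblasts.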 Type of assay: functional.
Assay [15] in a line: HepG2 cell cytotoxicity, dose response, cytotoxicity control for Shn3 inhibitor project, CellTiter-Glo, cherry-picked (AID 624134). Type of assay: functional, cell-based.
A short description of assay [16]: control 3'UTR Renilla luciferase suppression, dose response, counter-screen for Shn3 inhibitor project, cell-based, Clone20-Shn3RL, cherry-picked (AID 624133). Type of assay: functional.
The target of assay [17] is Hepatocyte nuclear factor 4-alpha (Homo sapiens, UniProt P41235). Format: functional, cell-based.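 Further: biochemical luminescence-based dose-response counterscreen measuring inhibition of HNF4 dimerization, run alongside a screen for blockers of ABHD5–perilipin-5 interaction; split luciferase complementation of HNF4 fusion proteins in cell lysate measuring dimerization.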
Assay [18] can be described thus: HeLa cell cytotoxicity, dose response, cytotoxicity control for MgcRacGAP inhibitor project (AID 624300). Format: functional.
For assay [19], the target named is T5, Rac GTPase-activating protein 1 (Homo sapiens, UniProt Q9H0H5).
T5 sequence (Q9H0H5 whole entry): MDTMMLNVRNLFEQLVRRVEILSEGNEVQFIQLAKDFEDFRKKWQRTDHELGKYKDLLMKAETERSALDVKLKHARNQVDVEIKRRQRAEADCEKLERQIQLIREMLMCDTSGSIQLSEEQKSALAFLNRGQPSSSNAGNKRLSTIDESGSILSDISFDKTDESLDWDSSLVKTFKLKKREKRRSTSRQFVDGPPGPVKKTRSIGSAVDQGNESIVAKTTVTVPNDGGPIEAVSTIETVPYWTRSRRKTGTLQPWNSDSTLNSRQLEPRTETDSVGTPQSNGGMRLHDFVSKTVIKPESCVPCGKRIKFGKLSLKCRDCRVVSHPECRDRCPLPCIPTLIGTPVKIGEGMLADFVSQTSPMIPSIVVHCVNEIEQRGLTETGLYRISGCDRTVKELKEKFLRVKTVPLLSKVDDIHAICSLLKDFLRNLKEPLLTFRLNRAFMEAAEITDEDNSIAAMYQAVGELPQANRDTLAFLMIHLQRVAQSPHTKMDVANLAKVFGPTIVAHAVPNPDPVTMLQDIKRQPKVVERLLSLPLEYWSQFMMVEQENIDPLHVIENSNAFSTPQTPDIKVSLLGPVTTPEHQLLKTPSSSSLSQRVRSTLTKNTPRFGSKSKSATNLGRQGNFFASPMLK
Nature of the assay: MgcRacGAP GTPase-activating activity inhibitors, confirmation, biochemical, ADP Hunter fluorescence, primary and confirmatory (AID 624330). Format: functional.

In the next assay the target is Beta-galactosidase (Escherichia coli, UniProt Q8VNN2). In words: PubChem AID 485352. Format: functional.
The target in assay [20] is T6, Type-1 angiotensin II receptor (Homo sapiens, UniProt P30556).
T6 sequence (P30556 whole entry): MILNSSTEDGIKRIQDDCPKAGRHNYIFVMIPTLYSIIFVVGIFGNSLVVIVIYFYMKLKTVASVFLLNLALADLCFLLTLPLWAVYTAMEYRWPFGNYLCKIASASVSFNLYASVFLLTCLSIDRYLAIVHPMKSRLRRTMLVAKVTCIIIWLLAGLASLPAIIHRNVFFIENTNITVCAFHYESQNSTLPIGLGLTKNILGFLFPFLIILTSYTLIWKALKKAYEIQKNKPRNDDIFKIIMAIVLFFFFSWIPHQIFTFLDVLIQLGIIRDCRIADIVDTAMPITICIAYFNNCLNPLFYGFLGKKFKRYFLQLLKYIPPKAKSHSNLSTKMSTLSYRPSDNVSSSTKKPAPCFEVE
Nature of the assay: AT1 receptor antagonists, dose response, selectivity assay for APJ receptor antagonist project, cell-based, uHTS hits (AID 463214).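 Further: antagonist potency against angiotensin II stimulated AT1 response.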 Type of assay: functional.

Assay [21] can be described thus: cells. Format: functional, cell-based.
Assay [22] in a line: Luminescence Cell-Based Dose Response HTS to Identify Inhibitors of 5'UTR Stem-Loop Driven Prion Protein mRNA Translation in H4 Neuroglioblastoma Cells. [Related pubchem assays: 1827 (Project Summary), 1813 (Primary HTS)]. Format: functional.
Assay [23] can be described thus: inhibitors of SNCA 5'UTR-driven reporter translation, confirmation, H4 neuroglioma cells, luminescence (AID 1988). Type of assay: functional, cell-based.
A short description of assay [24]: cells. Format: functional, cell-based. The source holds these as a separate data set.
For a further assay, the target named is Nonstructural protein 1 (Influenza A virus, UniProt Q194T2). Format: functional, Influenza A virus (A/California/07/2009(H1N1)).
Another assay deals with INS1. In words: beta cell apoptosis inhibitors, cytokine rescue, dose response, luminescence, retest (AID 449756).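 Further: cell death triggered by IL-1 beta plus TNF-alpha plus IFN-gamma mixture; protective hits raise ATP signal compared with cytokine alone wells.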 The conditions noted are these: Rattus norvegicus. Format: functional, cell-based.

Calls of active or inactive are those of the source.

Beta-galactosidase, sequence (Q8VNN2 whole entry): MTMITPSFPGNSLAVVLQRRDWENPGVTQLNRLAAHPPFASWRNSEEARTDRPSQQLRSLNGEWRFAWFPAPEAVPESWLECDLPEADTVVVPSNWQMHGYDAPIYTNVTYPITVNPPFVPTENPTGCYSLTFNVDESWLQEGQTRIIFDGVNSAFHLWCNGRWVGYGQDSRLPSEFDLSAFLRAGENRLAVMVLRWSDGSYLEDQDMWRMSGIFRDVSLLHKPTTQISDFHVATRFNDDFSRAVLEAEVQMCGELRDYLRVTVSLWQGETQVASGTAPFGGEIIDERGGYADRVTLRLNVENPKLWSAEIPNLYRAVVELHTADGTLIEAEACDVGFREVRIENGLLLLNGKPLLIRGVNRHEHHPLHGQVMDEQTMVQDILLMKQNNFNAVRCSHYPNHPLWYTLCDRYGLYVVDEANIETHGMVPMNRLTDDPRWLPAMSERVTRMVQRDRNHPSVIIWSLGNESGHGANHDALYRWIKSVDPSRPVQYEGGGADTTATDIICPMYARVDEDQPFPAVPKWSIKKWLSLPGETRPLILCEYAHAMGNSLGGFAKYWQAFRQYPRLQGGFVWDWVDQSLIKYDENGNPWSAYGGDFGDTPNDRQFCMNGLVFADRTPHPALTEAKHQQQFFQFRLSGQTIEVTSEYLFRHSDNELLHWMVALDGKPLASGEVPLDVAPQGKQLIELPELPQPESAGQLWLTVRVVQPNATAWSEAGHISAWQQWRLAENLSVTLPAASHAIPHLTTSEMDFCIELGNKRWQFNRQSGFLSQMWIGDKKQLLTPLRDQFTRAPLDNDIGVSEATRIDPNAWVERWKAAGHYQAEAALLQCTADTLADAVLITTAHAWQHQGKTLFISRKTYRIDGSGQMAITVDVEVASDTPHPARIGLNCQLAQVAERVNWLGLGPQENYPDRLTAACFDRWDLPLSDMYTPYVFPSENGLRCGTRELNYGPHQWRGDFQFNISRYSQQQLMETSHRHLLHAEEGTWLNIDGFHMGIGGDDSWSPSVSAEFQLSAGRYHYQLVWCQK
Nonstructural protein 1, sequence (Q194T2 whole entry): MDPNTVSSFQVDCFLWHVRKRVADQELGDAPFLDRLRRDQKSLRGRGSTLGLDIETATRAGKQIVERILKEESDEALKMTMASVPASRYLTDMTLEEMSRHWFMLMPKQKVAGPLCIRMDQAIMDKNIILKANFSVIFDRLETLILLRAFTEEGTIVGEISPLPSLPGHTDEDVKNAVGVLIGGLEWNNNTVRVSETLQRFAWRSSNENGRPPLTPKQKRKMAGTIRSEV
Hepatocyte nuclear factor 4-alpha, sequence (P41235 whole entry, the tested form may be a part): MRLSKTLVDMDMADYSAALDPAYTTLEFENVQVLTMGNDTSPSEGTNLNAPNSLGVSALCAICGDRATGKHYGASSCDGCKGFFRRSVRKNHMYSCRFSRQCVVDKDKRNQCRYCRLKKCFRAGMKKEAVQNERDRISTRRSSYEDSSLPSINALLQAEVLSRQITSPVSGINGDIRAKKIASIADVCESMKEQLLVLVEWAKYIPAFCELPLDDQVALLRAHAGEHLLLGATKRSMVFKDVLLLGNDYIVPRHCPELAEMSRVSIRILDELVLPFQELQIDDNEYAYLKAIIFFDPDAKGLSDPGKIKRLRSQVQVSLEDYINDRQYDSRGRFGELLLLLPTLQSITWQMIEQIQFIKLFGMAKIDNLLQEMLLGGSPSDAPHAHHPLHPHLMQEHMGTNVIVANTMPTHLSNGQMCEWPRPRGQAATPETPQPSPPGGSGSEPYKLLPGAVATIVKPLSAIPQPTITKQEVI
Dual specificity protein kinase CLK1, sequence (P49759 whole entry): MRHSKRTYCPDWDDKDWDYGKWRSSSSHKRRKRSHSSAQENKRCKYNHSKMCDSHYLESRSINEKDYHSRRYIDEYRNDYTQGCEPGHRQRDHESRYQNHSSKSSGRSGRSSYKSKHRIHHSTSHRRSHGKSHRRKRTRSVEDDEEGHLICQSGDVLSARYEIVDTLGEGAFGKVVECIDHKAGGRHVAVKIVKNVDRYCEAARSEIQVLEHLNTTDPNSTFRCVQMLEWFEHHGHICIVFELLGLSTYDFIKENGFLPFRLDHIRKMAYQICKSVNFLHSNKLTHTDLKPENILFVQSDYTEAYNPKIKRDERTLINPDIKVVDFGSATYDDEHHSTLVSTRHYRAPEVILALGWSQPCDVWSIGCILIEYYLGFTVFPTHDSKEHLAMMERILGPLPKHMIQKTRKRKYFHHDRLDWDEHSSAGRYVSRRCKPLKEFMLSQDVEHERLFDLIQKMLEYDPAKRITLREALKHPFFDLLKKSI

Regarding `Cc1cc(OCC(=O)NCc2ccc(S(N)(=O)=O)cc2)c2c3c(c(=O)oc2c1)CCC3`, the EC50 in assay [1] and in [2] was > 99 µM (inactive) in each case.

Regarding `CCN1CCN(Cc2ccc(NC(=O)c3ccc(C)c(/C=C/c4cnc(Nc5cc(N6CCNCC6)nc(C)n5)cn4)c3)cc2C(F)(F)F)CC1`, the EC50 was 0.424 µM (inconclusive) in assay [3]; 7.23 µM (active) in the assay with HEK293 [4]; 6.36 µM (active) in assay [5]; 86.5 µM (active) at Streptokinase A; > 150 µM (not active) in the assay on Streptococcus. In addition, the IC50 in the assay with HEK293 [6] is > 20 µM (inactive); in the assay on HEK293 [7] it was > 20 µM (inactive); at Bcl-2-related protein A1, > 20 µM (inactive); in assay [9], 9.4 µM (active); in assay [10] it was 11.1 µM (active); in assay [17] it was 5.88 µM (active). Also, the IC50 in assay [19] was 41 µM (active). Further, the values for the CC50 in assay [8] and in [18] were 6.89 µM (active) and 21.6 µM (active), respectively. Further, the AC50 in the assay with HEK293 [11] is 0.725 µM (active); in assay [12], 1.99 µM (active); in [13] it was 12.8 µM (active); in assay [14] it was 9.56 µM (active); in assay [15], 19.6 µM (active); in [16] it was 27.6 µM (active).

Consider `O=C(CCC(=O)OCC(=O)c1cccc([N+](=O)[O-])c1)Nc1cccc(Cl)c1Cl`, for which the EC50 at Beta-galactosidase was > 40 µM (inactive). For the same compound, the IC50 in assay [20] is reported as 34.2 µM (not active).

With `Cc1ncc(CO)c(/C=N/Nc2ccc(C(F)(F)F)cn2)c1O`, the EC50 was 5.4 µM (active) in assay [3]; 8.1 µM (active) in the assay “cells [21]”; 1.01 µM (active) in [22]; > 40 µM (inactive) on Beta-galactosidase; 0.907 µM (active) in assay [23]; > 350 µM (not active) in “cells [24]”. For the same compound, the results for the IC50 (in [20]; at Nonstructural protein 1) were 28.7 µM (not active) and 7.34 µM (active), respectively. Also, the AC50 in the assay with INS1 was 0.944 µM (active); in assay [13], 5.06 µM (active).

Broadly, the EC50 is the concentration that produces a half-maximal response. A word on the IC50: it is the concentration that inhibits the measured activity by half. For orientation: AC50 means the midpoint of the concentration-response curve, whichever way the signal moves.
